# Laboratory results as given in the supplement of paper PMC10307832.
# Tests used:
# Assay in all cases: relative viability (nuclei count vs DMSO), 5 days (fraction); higher = more cells survive
# SGI-1776 + Pictilisib = compound: CN1CCC(CNc2ccc3ncc(-c4cccc(OC(F)(F)F)c4)n3n2)CC1 [SGI-1776] + CS(=O)(=O)N1CCN(Cc2cc3nc(-c4cccc5[nH]ncc45)nc(N4CCOCC4)c3s2)CC1 [Pictilisib] (partner 1 µM)
# Method in brief: (§1)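 Lung cancer cell lines in 1536-well plates got either a single drug or a fixed anchor-drug dose together with five library-drug doses (not always all listed) in √10 steps, by pin tool, on the day after seeding. Nuclei were counted after 5 days, and relative viability is the treated-to-vehicle ratio of nuclei counts. Values are medians of duplicate plates.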
# Entinostat + Palbociclib = compound: Nc1ccccc1NC(=O)c1ccc(CNC(=O)OCc2cccnc2)cc1 [Entinostat] + CC(=O)c1c(C)c2cnc(Nc3ccc(N4CCNCC4)cn3)nc2n(C2CCCC2)c1=O [Palbociclib] (partner 0.5 µM)
# Method in brief: as §1
# SGI-1776 + Navitoclax = compound: CN1CCC(CNc2ccc3ncc(-c4cccc(OC(F)(F)F)c4)n3n2)CC1 [SGI-1776] + CC1(C)CCC(c2ccc(Cl)cc2)=C(CN2CCN(c3ccc(C(=O)NS(=O)(=O)c4ccc(N[C@H](CCN5CCOCC5)CSc5ccccc5)c(S(=O)(=O)C(F)(F)F)c4)cc3)CC2)C1 [Navitoclax] (partner 0.5 µM)
# Method in brief: as §1
# Entinostat + Linsitinib = compound: Nc1ccccc1NC(=O)c1ccc(CNC(=O)OCc2cccnc2)cc1 [Entinostat] + C[C@]1(O)C[C@@H](c2nc(-c3ccc4ccc(-c5ccccc5)nc4c3)c3c(N)nccn32)C1 [Linsitinib] (partner 1 µM)
# Method in brief: as §1
cell line,measurement,setting,value
UMC-11,relative viability,SGI-1776 + Pictilisib; first compound 0.08 µM,0.791
same,relative viability,SGI-1776 + Pictilisib; first compound 0.8 µM,0.987
same,relative viability,SGI-1776 + Pictilisib; first compound 2.53 µM,0.812
same,relative viability,SGI-1776 + Pictilisib; first compound 8 µM,0.498
same,relative viability,Entinostat + Palbociclib; first compound 0.02 µM,0.367
same,relative viability,Entinostat + Palbociclib; first compound 0.06325 µM,0.338
same,relative viability,Entinostat + Palbociclib; first compound 0.2 µM,0.367
same,relative viability,Entinostat + Palbociclib; first compound 0.6325 µM,0.274
same,relative viability,Entinostat + Palbociclib; first compound 2 µM,0.202
same,relative viability,SGI-1776 + Navitoclax; first compound 0.08 µM,0.265
same,relative viability,SGI-1776 + Navitoclax; first compound 0.8 µM,0.32
same,relative viability,SGI-1776 + Navitoclax; first compound 2.53 µM,0.275
same,relative viability,SGI-1776 + Navitoclax; first compound 8 µM,0.264
same,relative viability,Entinostat + Linsitinib; first compound 0.02 µM,1.11
same,relative viability,Entinostat + Linsitinib; first compound 0.06325 µM,1
same,relative viability,Entinostat + Linsitinib; first compound 0.2 µM,0.715
same,relative viability,Entinostat + Linsitinib; first compound 0.6325 µM,0.214
same,relative viability,Entinostat + Linsitinib; first compound 2 µM,0.142
